Experiment [1] concerns the target T1, FXR (Homo sapiens (Human), UniProt Q96RI1). Put plainly: transient human FXR/Gal4-luciferase reporter assay. As to conditions: Gal4-hFXR LBD fusion in HEK293 reporter cells; relative to 8 μM GW-4064. In kind it is cell-based. The protocol:
The exemplified compounds of the present invention were tested in the transient human FXR/Gal4-luciferase reporter assay, and assay results were described in the EXAMPLES section hereinbefore.
A Gal4-hFXR fusion construct reporter system was used as the primary assay to characterize compound activity. A construct including 5 copies of the Gal4 promoter response element upstream of a firefly luciferase reporter cDNA was stably expressed in HEK293 cells. This reporter cell line was maintained in Dulbecco's Modified Eagle's medium (DMEM; Gibco) supplemented with 1% penicillin-streptomycin (P/S) solution, 500 μg/ml Zeocin and 10% charcoal/dextran-treated fetal bovine serum (cs-FBS) at 37° C. in a humidified 5% CO2 atmosphere. Another plasmid was constructed in which the human cytomegalovirus promoter in the pcDNA3.1 vector directs the expression of the cDNA encoding a fusion protein comprised of the DNA binding domain from the Gal4 transcription factor fused to the ligand binding domain from human FXR.
The day prior to transfection, the reporter cells in culture are detached from the plate with trypsin and plated into a T75 flask at a sufficient density to achieve approximately 90% confluence the next morning. The transfection reagents are prepared by separately diluting 25 μg of the pcDNA3.1-Gal4-FXR plasmid into 1.87 mL of Opti-MEM (Thermo-Fisher), and 40 μL of Lipofectamine 2000 (Thermo-Fisher) into 1.87 mL of Opti-MEM, and then adding the diluted DNA solution into the diluted Lipofectamine 2000 solution and incubating at room temperature for 15-20 minutes. The mixture is further diluted with 10 mL of a solution comprised of DMEM, 10% cs-FBS, and 1% P/S immediately prior to transferring to the cells. The maintenance culture media is aspirated from the cells and the final transfection mixture is added before the cells are incubated overnight at 37° C. in a humidified 5% CO2 atmosphere. This protocol can be scaled up, and the transiently transfected cells can be cryopreserved in an assay-ready format.
For compound testing, 100 nL of the compounds (serial dilutions in DMSO) are dispensed with an Echo acoustic dispenser (Labcyte) into the wells of a Corning/Costar clear bottom 384-well white plate. The transfected cells are harvested, counted, and diluted such that 10-25,000 cells in 25 μL are plated into each well of the 384-well compound assay plate. The compound-treated cells are incubated overnight at 37° C. in a humidified 5% CO2 atmosphere. The next morning 25 μL of Steady-Glo (Promega) are added to each well of the plate, the mixture is incubated for 15 min. with shaking, and luminescence is measured on an Envision (Perkin Elmer) plate reader. Background counts from cells treated with DMSO alone are subtracted from all raw counts, and the corrected values are converted to a percentage of the control response attained with 8 μM GW-4064.

Experiment [2] concerns the target T1, FXR. Briefly: FXR EC50 (FXR agonist activity reported with each example). It is filed as cell-based.

T1 sequence (Q96RI1 262-486): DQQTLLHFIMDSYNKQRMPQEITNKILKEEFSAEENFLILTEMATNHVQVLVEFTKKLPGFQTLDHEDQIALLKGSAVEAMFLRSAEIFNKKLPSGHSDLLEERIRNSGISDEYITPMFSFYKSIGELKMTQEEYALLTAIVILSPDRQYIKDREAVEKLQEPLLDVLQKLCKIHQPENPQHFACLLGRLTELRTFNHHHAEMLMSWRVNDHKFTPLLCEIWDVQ

`O=C(O)c1cc(OC2CCCC2)c2cc(/C=C/C34CCC(OCc5c(-c6c(Cl)cncc6Cl)noc5C5CC5)(CC3)CC4)ccc2n1` [Example 589]: the EC50 (commonly the concentration needed to bring the measured effect to its halfway point) on FXR [1] is 17 nM.

`O=C(O)c1ccc(/C=C/C23CCC(OCc4c(-c5c(Cl)cncc5Cl)noc4C4CC4)(CC2)CC3)cc1` [Example 625] registered an EC50 at FXR [1] of 350 nM.

`O=C(O)COCc1ccc(/C=C/C23CCC(OCc4c(-c5c(Cl)cncc5Cl)noc4C4CC4)(CC2)CC3)cc1` [Example 622] had an EC50 on FXR [1] of 176 nM.

`O=C(O)Cc1ccc(/C=C/C23CCC(OCc4c(-c5c(Cl)cncc5Cl)noc4C4CC4)(CC2)CC3)cc1` [Example 587] gave an EC50 at FXR [1] of 173 nM.

As for `O=C(O)Cc1ccc(C#CC23CCC(OCc4c(-c5c(Cl)cncc5Cl)noc4C4CC4)(CC2)CC3)c(C(F)(F)F)c1` [Example 565], the midpoint of the response on FXR [1], the EC50, lay at 115 nM.

Regarding `O=C(O)c1cc(N2CCOCC2)c2nc(C34CCC(OCc5c(-c6c(Cl)cncc6Cl)noc5C5CC5)(CC3)CC4)ccc2c1` [Example 543], it took 469 nM to reach a half-maximal effect at FXR [1] (EC50).

`O=C(O)CCc1cccc(/C=C/C23CCC(OCc4c(-c5c(Cl)cncc5Cl)noc4C4CC4)(CC2)CC3)c1` [Example 623] showed an EC50 on FXR [1] of 843 nM.

`CCOc1nc(C(=O)O)cc2ccc(/C=C/C34CCC(OCc5c(-c6c(Cl)cncc6Cl)noc5C5CC5)(CC3)CC4)cc12` [Example 604] registered an EC50 on FXR [1] of 44.1 nM.

On to `O=C(O)c1cc2ccc(Cl)cc2c(C#CC23CCC(OCc4c(-c5c(Cl)cncc5Cl)noc4C4CC4)(CC2)CC3)n1` [Example 547], for which, at FXR [1], a half-maximal response (EC50) required 251 nM.

Take `O=C(O)CCc1ccc(/C=C/C23CCC(OCc4c(-c5c(Cl)cncc5Cl)noc4C4CC4)(CC2)CC3)cc1` [Example 606]: the EC50 at FXR [1] came to 160 nM.

As for `Cc1c(OCC23CCC(OCc4c(-c5c(Cl)cncc5Cl)noc4C4CC4)(CC2)CC3)nn(CC2CC2)c1C(=O)O` [Example 532], it took 148 nM to reach a half-maximal effect at FXR [1] (EC50).

The compound `COc1ncc(-c2noc(C34CCC(OCc5c(-c6c(Cl)cncc6Cl)noc5C5CC5)(CC3)CC4)n2)cc1C(=O)O` [Example 585] had an EC50 at FXR [1] of 114 nM. The EC50 values of the last two compounds are within 1.5-fold of each other.

For the compound `O=C(O)c1cnc2ccc(/C=C/C34CCC(OCc5c(-c6c(Cl)cncc6Cl)noc5C5CC5)(CC3)CC4)cn12` [Example 593], the concentration for a half-maximal effect (EC50) on FXR [1] was found to be 1130 nM. Against the preceding compound, the EC50 is about 9.9-fold higher.

For the compound `COCCCOc1nc(C(=O)O)cc2ccc(/C=C/C34CCC(OCc5c(-c6c(Cl)cncc6Cl)noc5C5CC5)(CC3)CC4)cc12` [Example 601], a half-maximal effect on FXR [1] (EC50) was put at 18 nM. Compared with the last compound, the EC50 is about 63-fold lower.

In turn, `O=C(O)c1cc2ccc(/C=C/C34CCC(OCc5c(-c6c(Cl)cncc6Cl)noc5C5CC5)(CC3)CC4)cc2c(OC2CC2)n1` [Example 614] displayed an EC50 at FXR [1] of 51 nM. This EC50 is about 2.8-fold higher than that of the compound before.

Take `CCOc1nc(C(=O)O)cc2ccc(OCC34CCC(OCc5c(-c6c(Cl)cncc6Cl)noc5C5CC5)(CC3)CC4)cc12` [Example 575]: the response on FXR [1] was half-maximal at 18 nM (EC50).

Turning to `O=C(O)c1cc(C(F)(F)F)cn2c(C#CC34CCC(OCc5c(-c6c(Cl)cncc6Cl)noc5C5CC5)(CC3)CC4)cnc12` [Example 545], the EC50 on FXR [1] was 5 nM.

In turn, `O=C(O)c1cc2ccc(/C=C/C34CCC(OCc5c(-c6c(Cl)cncc6Cl)noc5C5CC5)(CC3)CC4)cc2c(Cl)n1` [Example 599] registered an EC50 on FXR [1] of 15 nM.

Compound `O=C(O)c1cc(OCC23CCC(OCc4c(-c5c(Cl)cncc5Cl)noc4C4CC4)(CC2)CC3)nn1C1CC1` [Example 539] came in with an EC50 on FXR [1] of 25 nM.

Turning to `O=C(O)c1cc2ccc(C#CC34CCC(OCc5c(-c6c(Cl)cncc6Cl)noc5C5CC5)(CC3)CC4)cc2c(OCCN2CCCC2)n1` [Example 574], at FXR [1], a half-maximal response (EC50) required 1370 nM.

With `COCCCOc1nc(C(=O)O)cc2cc(C#CC34CCC(OCc5c(-c6c(Cl)cncc6Cl)noc5C5CC5)(CC3)CC4)ccc12` [Example 549], on FXR [1], a half-maximal effect (EC50) was put at 126 nM.

For `O=C(O)c1cccc(COCC23CCC(OCc4c(-c5c(Cl)cncc5Cl)noc4C4CC4)(CC2)CC3)c1` [Example 525], the EC50 at FXR [1] was found to be 167 nM.

`Cn1c(C(=O)O)cc2ccc(/C=C/C34CCC(OCc5c(-c6c(Cl)cncc6Cl)noc5C5CC5)(CC3)CC4)cc21` [Example 595]: on FXR [1], a half-maximal effect (EC50) was put at 49 nM.

In turn, `O=C(O)c1cc2ccc(/C=C/C34CCC(OCc5c(-c6c(Cl)cncc6Cl)noc5C5CC5)(CC3)CC4)cc2c(N2CCOCC2)n1` [Example 603] gave an EC50 at FXR [1] of 18 nM.

In the case of `O=C(O)c1cncc(/C=C/C23CCC(OCc4c(-c5c(Cl)cncc5Cl)noc4C4CC4)(CC2)CC3)c1` [Example 627], at FXR [1], the EC50 amounted to 1150 nM.

For `O=C(O)c1cnc2cc(/C=C/C34CCC(OCc5c(-c6c(Cl)cncc6Cl)noc5C5CC5)(CC3)CC4)ccn12` [Example 592], at FXR [1], the response was half-maximal at 194 nM (EC50). This EC50 lies about 5.9-fold lower than the previous one.

Turning to `O=C(O)c1cc(OC2CCOC2)c2nc(C34CCC(OCc5c(-c6c(Cl)cncc6Cl)noc5C5CC5)(CC3)CC4)ccc2c1` (stereo not shown) [Example 560], the EC50 at FXR [1] was determined as 286 nM.

`O=C(O)Cc1ccc(C#CC23CCC(OCc4c(-c5c(Cl)cncc5Cl)noc4C4CC4)(CC2)CC3)cc1F` [Example 567] gave a concentration giving a half-maximal response (EC50) on FXR [1] of 121 nM.

At FXR [1], `CN1CCN(c2ncc(C(=O)O)cc2C#CC23CCC(OCc4c(-c5c(Cl)cncc5Cl)noc4C4CC4)(CC2)CC3)CC1` [Example 568] yielded an EC50 of 524 nM.

On FXR [2], `O=C(O)c1ccc(-c2noc(C34CCC(OCc5c(-c6ccccc6C(F)(F)F)noc5C5CC5)(CC3)CC4)n2)cc1` [Example 29] gave an EC50 of 330 nM. This lies in the sub-micromolar range.

`COc1c(C(=O)O)cccc1-c1noc(C23CCC(/C=C/c4c(-c5c(Cl)cncc5Cl)noc4C4CC4)(CC2)CC3)n1` [Example 448, (E)-3-(5-(4-(2-(5-cyclopropyl-3-(3,5-dichloropyridin-4-yl)isoxazol-4-yl)vinyl)bicyclo[2.2.2]octan-1-yl)-1,2,4-oxadiazol-3-yl)-2-methoxybenzoic acid] showed an EC50 at FXR [2] of 10 nM.

`O=C(O)c1cccc2nc(OCC34CCC(OCc5c(-c6c(Cl)cncc6Cl)noc5C5CC5)(CC3)CC4)ccc12` [Example 343]: a half-maximal effect at FXR [2] (EC50) was put at 75 nM. Against the preceding compound, the EC50 is about 7.5-fold higher.

`O=C(O)c1ccc(C2CC2)c2nc(C34CCC(OCc5c(C(C6CC6)C6CC6)noc5C5CC5)(CC3)CC4)ccc12` [Example 424] showed an EC50 at FXR [2] of 500 nM.

`CS(=O)(=O)NC(=O)c1cccc(C23CCC(COCc4c(-c5c(Cl)cccc5Cl)noc4C4CC4)(CC2)CO3)c1` [Example 215]: at FXR [2], the EC50 was 1600 nM.

As to `O=C(O)c1cc(-c2noc(C34CCC(OCc5c(-c6c(Cl)cncc6Cl)noc5C5CC5)(CC3)CC4)n2)ccc1F` [Example 233, 5-(5-(4-((5-cyclopropyl-3-(3,5-dichloropyridin-4-yl)isoxazol-4-yl)methoxy)bicyclo[2.2.2]octan-1-yl)-1,2,4-oxadiazol-3-yl)-2-fluorobenzoic acid], at FXR [2], a half-maximal response (EC50) required 92 nM.

At FXR [2], `COC(=O)c1cc(OC(F)F)cc(-c2noc(C34CCC(/C=C/c5c(-c6c(Cl)cncc6Cl)noc5C5CC5)(CC3)CC4)n2)c1` [Example 443, (E)-methyl 3-(5-(4-(2-(5-cyclopropyl-3-(3,5-dichloropyridin-4-yl)isoxazol-4-yl)vinyl)bicyclo[2.2.2]octan-1-yl)-1,2,4-oxadiazol-3-yl)-5-(difluoromethoxy)benzoate] gave a 50% effective concentration (EC50) of 49 nM. This EC50 is about 1.9-fold lower than that of the compound before.

At FXR [2], `O=C(O)c1ccc(NC(=O)C23CCC(COCc4c(-c5c(Cl)cccc5Cl)noc4C4CC4)(CC2)CC3)c(Cl)c1` [Example 170, 3-chloro-4-(4-(((5-cyclopropyl-3-(2,6-dichlorophenyl)isoxazol-4-yl)methoxy)methyl)bicyclo[2.2.2]octane-1-carboxamido)benzoic acid] showed an EC50 of 636 nM.

On to `O=C(O)c1cc(F)c2nc(C#CC34CCC(OCc5c(-c6c(Cl)cncc6Cl)noc5C5CC5)(CC3)CC4)sc2c1` [Example 133, 2-((4-((5-cyclopropyl-3-(3,5-dichloropyridin-4-yl)isoxazol-4-yl)methoxy)bicyclo[2.2.2]octan-1-yl)ethynyl)-4-fluorobenzo[d]thiazole-6-carboxylic acid], for which, on FXR [2], a half-maximal effect (EC50) was put at 180 nM.

As for `O=C(O)c1ccc(-c2noc(C34CCC(COCc5c(-c6c(Cl)cccc6Cl)noc5C5CC5)(CC3)CC4)n2)cc1` [Example 152], at FXR [2], the EC50 stood at 140 nM.

On FXR [2], `O=C(O)c1cc(F)c2nc(C34CCC(OCc5c(-c6c(Cl)cccc6Cl)noc5C5CC5)(CC3)CC4)sc2c1` [Example 16, 2-(4-((5-cyclopropyl-3-(2,6-dichlorophenyl)isoxazol-4-yl)methoxy)bicyclo[2.2.2]octan-1-yl)-4-fluorobenzo[d]thiazole-6-carboxylic acid] displayed an EC50 of 36 nM. Compared with the last compound, the EC50 is about 3.9-fold lower.
